Values of other authors as cited in patent US20080280850A1, “Methods and Compositions for Treating Flaviviruses, Pestiviruses and Hepacivirus” (priority 2004, published 2008).

Tested on: HCV

For `NC(=O)c1ncn([C@@H]2O[C@H](CO)[C@@H](O)[C@H]2O)n1` [Ribavirin, 1-[…]D-ribofuranosyl-1-1,2,4-triazole-3-carboxamide], the “effect on serum levels of HCV-RNA” value (patients, monotherapy) is given as “does not lower serum levels of HCV-RNA” and the “serum amino transferase levels reduced to normal, share of patients” value (ribavirin alone) is given as 40%.
